The values below come from paper PMC3388044, “Probing of Exosites Leads to Novel Inhibitor Scaffolds of HCV NS3/4A Proteinase” (PLoS ONE, 2012).

Usually IC50 stands for the concentration at which inhibition is half-maximal. By IC90 is commonly meant the concentration needed for an effect of 90%. Read a low IC90 as an effect from little substance.

The test system of test [1] is NS3/4A V36M. In kind it is biochemical, HCV genotype 1b, strain HC-J4. Conditions: fold change in IC50 for the mutant compared to WT. The source says: (§1) Reagents were purchased from Sigma unless indicated otherwise. The FRET substrate Ac-DE-D(Edans)-EE-Abu-ψ-[COO]-AS-K(Dabsyl)-NH2, purified recombinant wild-type NS3/4A from HCV genotype 1b, strain HC-J4, and the mutants with the V36M, R155K, A156T, D168A and V170A resistance mutations were from AnaSpec (Fremont, CA). The NS3/4A construct represented the individual NS3 proteinase domain N-terminally fused with an NS4A co-factor and tagged with a 6xHis tag. […] Pyroglutamic acid-Arg-Thr-Lys-Arg-7-amino-4-methylcoumarin was from Peptides International (Louisville, KY). West Nile virus NS2B-NS3 proteinase (strain NY99) was expressed, purified and refolded to restore its functional activity as described earlier. The pET15b-Den2-CF40-Gly-NS3pro 185 plasmid encoding the Dengue virus type 2 NS2B-NS3 protease was a kind gift of Dr. Subhash Vasudevan (Program in Emerging Infectious Diseases, DUKE-NUS Graduate Medical School, Singapore). DV NS2B-NS3 proteinase was expressed purified and refolded to restore its functional activity as described previously, [70]. The expression of the soluble C-terminally truncated human furin construct in Sf9 insect cells (an ovarian cell line from fall armyworm Spodoptera frugiperda; Invitrogen, Carlsbad, CA) infected with the recombinant baculovirus and purification of soluble furin from the medium were described earlier. Original human hepatocarcinoma Huh7 cells were obtained from ATCC (Manassas, VA).
(§2) The NS3/4A activity assay was performed at 37°C in triplicate in wells of a 96-well plate in 0.2 ml 50 mM HEPES, pH 7.5, containing 100 mM NaCl, 10 mM DTT, 20% glycerol, the Ac-DE-D(Edans)-EE-Abu-ψ-[COO]-AS-K(Dabsyl)-NH2 substrate (10 µM) and the NS3/4A enzyme (10 nM). Reaction velocity was monitored continuously at λex = 355 nm and λem = 500 nm for 10 min using a Spectramax Gemini EM fluorescence spectrophotometer (Molecular Devices, Sunnyvale, CA) and the initial rate of reaction v was recorded for each reaction. […] Compound stock solutions (10 mM) were made in 100% DMSO. Stocks were then diluted using the assay buffer. As a result, the final DMSO concentration was always below 1% in the assay reactions.
(§3) To measure the inhibitory potency of the compounds, their increasing concentrations were pre-incubated with the individual proteinases in the corresponding buffer for 30 min at ambient temperature. At least, 7–9 different concentrations were used for each inhibitor. The residual activity of the enzymes was then measured as above. The IC50 values of the inhibitory compounds were calculated by determining the concentrations of the compounds needed to inhibit 50% of the enzyme activity against the peptide substrate. GraphPad Prism was used as fitting software.

For another test, the target named is T1, NS3/4A D168A (Hepatitis C virus genotype 1b, UniProt O92972, D1194A).
T1 construct: The NS3/4A construct represented the individual NS3 proteinase domain N-terminally fused with an NS4A co-factor; 6xHis; purchased AnaSpec (Fremont, CA)
In kind it is biochemical, HCV genotype 1b, strain HC-J4. Conditions: recombinant D168A mutant, FRET peptide substrate.
Text: as §1, §2, §3

The test system of test [2] is NS3/4A A156T. In kind it is biochemical, HCV genotype 1b, strain HC-J4. Conditions: fold change in IC50 for the mutant compared to WT.
Text: as §1, §2, §3

Test [3] has as its target T2, NS3/4A R155K (Hepatitis C virus genotype 1b, UniProt O92972, R1181K).
T2 construct: The NS3/4A construct represented the individual NS3 proteinase domain N-terminally fused with an NS4A co-factor; 6xHis; purchased AnaSpec (Fremont, CA)
In kind it is biochemical, HCV genotype 1b, strain HC-J4. Conditions: recombinant R155K mutant, FRET peptide substrate.
Text: as §1, §2, §3

The test system of test [4] is NS3/4A R155K. Format: biochemical, HCV genotype 1b, strain HC-J4. Conditions: fold change in IC50 for the mutant compared to WT.
Text: as §1, §2, §3

Test [5] deals with T3, NS3/4A A156T (Hepatitis C virus genotype 1b, UniProt O92972, A1182T).
T3 construct: The NS3/4A construct represented the individual NS3 proteinase domain N-terminally fused with an NS4A co-factor; 6xHis; purchased AnaSpec (Fremont, CA)
In kind it is biochemical, HCV genotype 1b, strain HC-J4. Conditions: for IC50: recombinant A156T mutant, FRET peptide substrate; for effect of A156T resistance mutation on efficacy: in contrast with boceprevir and telaprevir.
Text: as §1, §2, §3

Test [6] addresses T4, NS3/4A V36M (Hepatitis C virus genotype 1b, UniProt O92972, V1062M).
T4 construct: The NS3/4A construct represented the individual NS3 proteinase domain N-terminally fused with an NS4A co-factor; 6xHis; purchased AnaSpec (Fremont, CA)
Format: biochemical, HCV genotype 1b, strain HC-J4. Conditions: recombinant V36M mutant, FRET peptide substrate.
Text: as §1, §2, §3

The subject of test [7] is sub-genomic HCV RNA replicon. The test can be described thus: HCV replicon inhibition assay, luciferase reporter in Huh7 ET cells. Conditions: 72 h; for IC50: concentration reducing viral replication by 50%; for IC90: concentration reducing viral replication by 90%. Format: cell-based. The method, then: To support our in vitro data, the inhibition of HCV RNA replication was then measured using human hepatocarcinoma Huh7 ET cells. These cells express a sub-genomic HCV RNA replicon with a stable luciferase reporter. The replicon contains the 5′-end Internal Ribosome Entry Site (IRES) of HCV which drives the production of a firefly luciferase, ubiquitin, and neomycin phosphotransferase (Neo) fusion protein. Ubiquitin cleavage releases the luciferase and Neo proteins. The IRES element encephalomyocarditis virus controls the translation of the HCV […] proteins NS3-NS5 in the replicon. The NS3 protein cleaves the synthesized HCV polyprotein to release the mature NS3, NS4A, NS4B, NS5A and NS5B proteins that are required for HCV replication. The authentic 3′-end non-translating region of HCV is localized at the 3′-end of the replicon. As a result, the activity of the luciferase reporter is directly proportional to HCV RNA levels and positive control antiviral compounds behave comparably using either luciferase or RNA endpoints.
Human interferon α2b was used as a control.

In the case of `O=C(Nc1ccccc1)c1cc(S(=O)(=O)Nc2nc3ncccc3[nH]2)c(SSc2cc(Cl)c(C(=O)Nc3ccccc3)cc2S(=O)(=O)Nc2nc3ncccc3[nH]2)cc1Cl` [Compound 1], the “NS3/4A V36M FC” value with NS3/4A V36M [1] is recorded as 1.4. For the same molecule, the IC50 was 0.25 µM at NS3/4A D168A; 1.75 µM on NS3/4A R155K [3]; 0.72 µM at NS3/4A A156T [5]; 0.26 µM at NS3/4A V36M [6]; above 100 µM in test [7]. Moreover, the “NS3/4A A156T FC” value in the test with NS3/4A A156T [2] is 3.93. Besides, in the test with NS3/4A R155K [4], the “NS3/4A R155K FC” value came to 9.6. In addition, the IC90 in test [7] was above 100 µM.
On to `Clc1ccc(OCc2nn3c(CCc4nnc5sc(COc6ccc(Cl)cc6)nn45)nnc3s2)cc1` [Compound 2], for which the “NS3/4A V36M FC” value with NS3/4A V36M [1] is 5.1. Also, the IC50 was found to be 4.45 µM at NS3/4A D168A; 5.84 µM on NS3/4A R155K [3]; 17.3 µM at NS3/4A A156T [5]; 1.53 µM on NS3/4A V36M [6]; 10 µM in test [7]. The “NS3/4A A156T FC” value in the test on NS3/4A A156T [2] is on record as 57.57. In the test with NS3/4A R155K [4], the “NS3/4A R155K FC” value was 19.5. The molecule also yielded an IC90 in test [7] of 25.2 µM.
For `Cc1n[nH]c(=S)n1Nc1nc(SCc2ccccc2)nc2n[nH]c(Cc3nn[nH]n3)c12` [Compound 3], the “NS3/4A V36M FC” value in the test with NS3/4A V36M [1] stood at 4.6. In addition, the half-inhibitory concentration (IC50) on NS3/4A D168A was 8.4 µM; on NS3/4A R155K [3] it was 5.53 µM; on NS3/4A A156T [5], 16.2 µM; on NS3/4A V36M [6], 1.67 µM; in test [7] it was above 100 µM. Further, in the test on NS3/4A A156T [2], the “NS3/4A A156T FC” value came to 45.14. For the same molecule, the “NS3/4A R155K FC” value in the test on NS3/4A R155K [4] turned out to be 15.4. In addition, the IC90 in test [7] was above 100 µM.
On to `Oc1ccccc1-c1nnc2sc3c(Cl)c4nn5c(-c6ccccc6O)nnc5sc4c(Cl)c3nn12` [Compound 4], for which, in the test with NS3/4A V36M [1], the “NS3/4A V36M FC” value came out at 0.9. Also, the IC50 amounted to 3.35 µM on NS3/4A D168A; 3.73 µM at NS3/4A R155K [3]; 6.54 µM on NS3/4A A156T [5]; 0.34 µM on NS3/4A V36M [6]; 28 µM in test [7]. The “NS3/4A A156T FC” value with NS3/4A A156T [2] is recorded as 18.17. Further, in the test with NS3/4A R155K [4], the “NS3/4A R155K FC” value is 10.4. Besides, the IC90 in test [7] was 99.4 µM.
Regarding `Clc1ccc(Nc2nc(SCc3ccccc3)nc3n[nH]c(Cc4nc5ccccc5s4)c23)cc1` [Compound 5], the “NS3/4A V36M FC” value with NS3/4A V36M [1] amounted to 2.8. In addition, the IC50 at NS3/4A D168A was 12.7 µM; at NS3/4A R155K [3], 9.64 µM; at NS3/4A A156T [5] it was 18.6 µM; at NS3/4A V36M [6] it was 1.07 µM; in test [7], above 100 µM. In addition, the “NS3/4A A156T FC” value in the test with NS3/4A A156T [2] was 48.95. For the same molecule, the “NS3/4A R155K FC” value in the test on NS3/4A R155K [4] was 25.4. In test [7], this molecule registered an IC90 above 100 µM.
In the case of `S=c1[nH]nc(Nc2nc(SCc3ccccc3)nc3n[nH]c(Cc4nn[nH]n4)c23)s1` [Compound 6], the “NS3/4A V36M FC” value in the test on NS3/4A V36M [1] stood at 1.04. For the same molecule, the IC50 on NS3/4A D168A is 1.21 µM; on NS3/4A R155K [3] it was 2.29 µM; on NS3/4A A156T [5], 3.08 µM; on NS3/4A V36M [6], 0.99 µM; in test [7], above 100 µM. Besides, the “NS3/4A A156T FC” value in the test on NS3/4A A156T [2] is reported as 3.24. In addition, the “NS3/4A R155K FC” value in the test on NS3/4A R155K [4] is reported as 2.4. Besides, the “effect of A156T resistance mutation on efficacy” value at NS3/4A A156T [5] was “not affected”. For the same molecule, the IC90 in test [7] is above 100 µM.
As for `S=c1[nH]n2c(COc3cc(Cl)c(OCc4nnc5sc(=S)[nH]n45)cc3Cl)nnc2s1` [Compound 7], the “NS3/4A V36M FC” value in the test on NS3/4A V36M [1] is recorded as 1.1. Also, the IC50 at NS3/4A D168A is 1.28 µM; on NS3/4A R155K [3], 2.03 µM; on NS3/4A A156T [5], 1.12 µM; on NS3/4A V36M [6] it was 1.4 µM; in test [7], 9.95 µM. The “NS3/4A A156T FC” value with NS3/4A A156T [2] is listed as 0.9. Also, the “NS3/4A R155K FC” value with NS3/4A R155K [4] turned out to be 1.6. Also, the “effect of A156T resistance mutation on efficacy” value on NS3/4A A156T [5] is reported as “not affected”. The molecule further came in with an IC90 in test [7] of 54.4 µM.
In the case of `COc1cc(C2C(C(=O)Nc3ccc(Cl)c(Cl)c3)=C(C)NC(C)=C2C(=O)Nc2ccc(Cl)c(Cl)c2)ccc1O` [Compound 8], in the test with NS3/4A V36M [1], the “NS3/4A V36M FC” value came out at 0.96. The IC50 came to 3.02 µM at NS3/4A D168A; 10.9 µM on NS3/4A R155K [3]; 17.7 µM at NS3/4A A156T [5]; 1.84 µM on NS3/4A V36M [6]; 13.6 µM in test [7]. Further, the “NS3/4A A156T FC” value in the test on NS3/4A A156T [2] is listed as 9.2. The “NS3/4A R155K FC” value in the test with NS3/4A R155K [4] stood at 5.7. It took 19.2 µM to reach the 90% level in test [7] (IC90).
